Experimental data reported in ChEMBL document CHEMBL4837181 (Eur J Med Chem, 2020).

Tests used:
[1] = Chemical stability of compound in simulated gastric fluid assessed as compound remaining at 5 uM measured after 1.5 hrs by LC-MS/MS analysis; type: ADME, physicochemical; conditions: read-out: Stabilty
[2] = Drug metabolism in cynomolgus monkey assessed as formation of M9 metabolite at 15 mg/kg, iv administered as single dose; type: ADME, organism-based, Macaca fascicularis; conditions: in vivo
[3] = Drug metabolism in mouse assessed as formation of M9 metabolite at 20 to 900 mg/kg; type: ADME, organism-based; conditions: in vivo, dose 20-900 mg/kg
[4] = Toxicity in rat assessed as distended abdomen at 150 to 180 mg/kg, po; type: organism-based; conditions: in vivo, dose 150-180 mg/kg
[5] = Apparent oral clearance in male cynomolgus monkey at 225 mg/kg, po measured on day 1; type: ADME, organism-based, Macaca fascicularis; conditions: in vivo

CL/F [5] | Structure (SMILES) | remaining at 1.5 h, 5 µM [1] | Drug metabolism [2] | Drug metabolism [3] | Activity [4]
 | CCOC(=O)[C@@H](Cc1cn(C)c2ccccc12)NC(=O)[C@@H](N)CC(C)C.Cl | 92% | Metabolite_Detected | Metabolite_Detected | Toxic
22.1 mL/min/kg | Cn1cc(C[C@@H](N)C(=O)O)c2ccccc21 [INDOXIMOD] |  |  |  | 
